Target: T1, laccase derived from Trametes villosa, TvL (Trametes villosa, UniProt Q99044)
T1 construct: purchased Novo Nordisk A/S
T1 sequence (Q99044 22-520): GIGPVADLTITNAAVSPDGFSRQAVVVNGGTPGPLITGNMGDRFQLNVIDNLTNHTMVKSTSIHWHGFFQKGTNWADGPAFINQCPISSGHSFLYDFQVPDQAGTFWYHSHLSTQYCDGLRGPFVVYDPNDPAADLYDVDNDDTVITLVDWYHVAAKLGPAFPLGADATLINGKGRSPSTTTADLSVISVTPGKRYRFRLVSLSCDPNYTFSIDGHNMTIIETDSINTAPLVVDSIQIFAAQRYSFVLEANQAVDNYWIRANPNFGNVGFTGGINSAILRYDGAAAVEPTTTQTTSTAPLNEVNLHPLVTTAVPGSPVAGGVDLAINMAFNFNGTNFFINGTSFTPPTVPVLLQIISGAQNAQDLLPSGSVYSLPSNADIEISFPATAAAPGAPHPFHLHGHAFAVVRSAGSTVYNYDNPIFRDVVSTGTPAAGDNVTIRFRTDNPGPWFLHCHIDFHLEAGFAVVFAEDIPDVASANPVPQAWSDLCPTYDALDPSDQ
Test: Effect of laccase on tobacco constituents, UV/Vis spectra before and after treatment (Example 1)
Assay type: biochemical
Details: 9 mM Na-acetate buffer pH 5.0; 4.8% Ethanol; 0.025 mg/ml of tobacco constituent; 0.016 mg/ml laccase; spectra 190-700 nm every 20 seconds for 5 minutes
Protocol: Tobacco constituents: Nicotine, Chlorogenic acid, Rutin and Scopoletin. Enzyme: Purified laccase derived from Trametes villosa, TvL. Apparatus: HP8452 UV/Vis diode array spectrophotometer, 1 cm quarts cuvette. Buffer: Sodium acetate (Merck)
10 mM acetate buffer was prepared from sodium acetate adjusted to pH 5.0 with sulphuric acid. Stock solution of 0.50 mg/ml in 96% ethanol was prepared of nicotine, chlorogenic acid, rutin, and scopoletin. A stock solution of 0.31 mg enzyme protein/ml of laccase in de-mineralised water was prepared. The HP diode array spectrophotometer was operated as per the manufacturer's instructions. A 1 cm quartz cuvette was used. As a blank was used 950µl buffer mixed with 50µl 96% ethanol. In a 1 cm quart cuvette was mixed 900µl 10 mM acetate buffer and 50µl of the stock solution of the compound in question. A spectrum of the "native" compound was recorded in the range 190-700 nm. 50µl of TvL stock solution was added and carefully mixed, and spectra in the range 190-700 nm were recorded every 20 seconds for 5 minutes.

COc1cc2ccc(=O)oc2cc1O [S, 7-Hydroxy-6-methoxy-2H-1-benzopyran-2-one]
spectral changes (peak position and peak relative height): significant spectral changes

Reference: patent EP1094724B1, “USE OF A PHENOL OXIDISING ENZYME IN THE TREATMENT OF TOBACCO” (priority 1998, dated 2000)
